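Where inhibition never reached the appropriate level, the endpoint shown equals the highest concentration tested. Otherwise, values were interpolated linearly from a five-concentration, 48-hour dose response in 96-well plates. TGI is the concentration that stops growth completely.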
Assays:
Test in all cases: inhibition of tumour cell growth, NCI panel, 48 h
[1] = tested on: 786-0 renal
[2] = tested on: A498 renal
[3] = tested on: A549 NSCLC
[4] = tested on: ACHN renal
[5] = tested on: BT-549 breast
[6] = tested on: CAKI-1 renal
[7] = tested on: CCRF-CEM leukemia
[8] = tested on: COLO 205 colon
[9] = tested on: DU-145 prostate
[10] = tested on: EKVX NSCLC
[11] = tested on: HCC-2998 colon
[12] = tested on: HCT-116 colon
[13] = tested on: HCT-15 colon
[14] = tested on: HL-60(TB) leukemia
[15] = tested on: HOP-62 NSCLC
[16] = tested on: HOP-92 NSCLC
[17] = tested on: HS 578T breast
[18] = tested on: HT29 colon
[19] = tested on: IGROV1 ovarian
[20] = tested on: K-562 leukemia
[21] = tested on: KM12 colon
[22] = tested on: LOX IMVI melanoma
[23] = tested on: M14 melanoma
[24] = tested on: MALME-3M melanoma
[25] = tested on: MCF7 breast
[26] = tested on: MDA-MB-231 breast
[27] = tested on: MDA-MB-435
[28] = tested on: MDA-N
[29] = tested on: MOLT-4 leukemia
[30] = tested on: NCI-H226 lung
[31] = tested on: NCI-H23 lung
[32] = tested on: NCI-H460 lung
[33] = tested on: NCI-H522 lung
[34] = tested on: NCI/ADR-RES ovarian
[35] = tested on: OVCAR-3 ovarian
[36] = tested on: OVCAR-4 ovarian
[37] = tested on: OVCAR-5 ovarian
[38] = tested on: OVCAR-8 ovarian
[39] = tested on: PC-3 prostate
[40] = tested on: RPMI-8226 leukemia
[41] = tested on: RXF 393 renal
[42] = tested on: SF-268 CNS
[43] = tested on: SF-295 CNS
[44] = tested on: SF-539 CNS
[45] = tested on: SK-MEL-2 melanoma
[46] = tested on: SK-MEL-28 melanoma
[47] = tested on: SK-MEL-5 melanoma
[48] = tested on: SK-OV-3 ovarian
[49] = tested on: SN12C renal
[50] = tested on: SNB-19 CNS
[51] = tested on: SNB-75 CNS
[52] = tested on: SR leukemia
[53] = tested on: SW-620 colon
[54] = tested on: T-47D breast
[55] = tested on: TK-10 renal
[56] = tested on: U251 CNS
[57] = tested on: UACC-257 melanoma
[58] = tested on: UACC-62 melanoma
[59] = tested on: UO-31 renal
[60] = tested on: DLD-1 colon
[61] = tested on: DMS 114 small cell lung
[62] = tested on: DMS 273 small cell lung
[63] = tested on: KM20L2 colon
[64] = tested on: LXFL 529 NSCLC
[65] = tested on: M19-MEL melanoma
[66] = tested on: SNB-78 CNS

## C=CC(C1=CC(=O)C(OC)=CC1=O)c1ccccc1 (stereo not drawn)
[1]
  TGI: 28.4 µM
[2]
  TGI: > 100 µM
[3]
  TGI: > 62 µM
[4]
  TGI: 27.4 µM
[5]
  TGI: 29.9 µM
[6]
  TGI: 31.7 µM
[7]
  TGI: 6.77 µM
[8]
  TGI: 36.6 µM
[9]
  TGI: 30.2 µM
[10]
  TGI: 30.5 µM
[11]
  TGI: 30.7 µM
[12]
  TGI: 23.4 µM
[13]
  TGI: 32 µM
[14]
  TGI: 6.72 µM
[15]
  TGI: 32.4 µM
[16]
  TGI: 11.8 µM
[17]
  TGI: 69.7 µM
[18]
  TGI: 42 µM
[19]
  TGI: 30.3 µM
[20]
  TGI: 13.2 µM
[21]
  TGI: 34.6 µM
[22]
  TGI: 31.7 µM
[23]
  TGI: 37.7 µM
[24]
  TGI: 28.7 µM
[25]
  TGI: 26.2 µM
[26]
  TGI: 19.2 µM
[27]
  TGI: 28.3 µM
[28]
  TGI: 31.6 µM
[29]
  TGI: 5.81 µM
[30]
  TGI: 39.6 µM
[31]
  TGI: 32.5 µM
[32]
  TGI: 36.3 µM
[33]
  TGI: 23.8 µM
[34]
  TGI: 44.8 µM
[35]
  TGI: 31.2 µM
[36]
  TGI: 30.1 µM
[37]
  TGI: 39 µM
[38]
  TGI: 58.7 µM
[39]
  TGI: 25.7 µM
[40]
  TGI: > 67.6 µM
[41]
  TGI: 29.2 µM
[42]
  TGI: 41.3 µM
[43]
  TGI: 27.6 µM
[44]
  TGI: 29.9 µM
[45]
  TGI: 30.3 µM
[46]
  TGI: 29.1 µM
[47]
  TGI: 30 µM
[48]
  TGI: 42.2 µM
[49]
  TGI: 28 µM
[50]
  TGI: 29.4 µM
[51]
  TGI: 39.1 µM
[52]
  TGI: 26.5 µM
[53]
  TGI: 48.6 µM
[54]
  TGI: 8.9 µM
[55]
  TGI: 32 µM
[56]
  TGI: 30 µM
[57]
  TGI: 34.8 µM
[58]
  TGI: 29 µM
[59]
  TGI: 29.6 µM

## COC1C=COC2(C)Oc3c(C)c(O)c4c(O)c(c(/C=N/N5CCN(N)CC5)c(O)c4c3C2=O)NC(=O)C(C)=CC=CC(C)C(O)C(C)C(O)C(C)C(OC(C)=O)C1C (stereo not drawn)
[1]
  TGI: > 100 µM
[2]
  TGI: > 100 µM
[3]
  TGI: > 100 µM
[4]
  TGI: > 100 µM
[6]
  TGI: > 100 µM
[7]
  TGI: 47.9 µM
[8]
  TGI: > 100 µM
[60]
  TGI: > 100 µM
[61]
  TGI: > 100 µM
[62]
  TGI: > 100 µM
[10]
  TGI: > 100 µM
[11]
  TGI: > 100 µM
[12]
  TGI: 80.7 µM
[13]
  TGI: > 100 µM
[14]
  TGI: > 100 µM
[15]
  TGI: > 100 µM
[16]
  TGI: > 100 µM
[18]
  TGI: > 100 µM
[19]
  TGI: > 100 µM
[20]
  TGI: > 100 µM
[21]
  TGI: > 100 µM
[63]
  TGI: > 100 µM
[22]
  TGI: > 100 µM
[64]
  TGI: > 100 µM
[23]
  TGI: > 100 µM
[65]
  TGI: > 100 µM
[24]
  TGI: > 100 µM
[29]
  TGI: > 100 µM
[30]
  TGI: > 100 µM
[31]
  TGI: > 100 µM
[33]
  TGI: 78.2 µM
[36]
  TGI: > 100 µM
[37]
  TGI: > 100 µM
[38]
  TGI: > 100 µM
[40]
  TGI: 88.8 µM
[41]
  TGI: > 100 µM
[42]
  TGI: > 100 µM
[43]
  TGI: > 100 µM
[44]
  TGI: > 100 µM
[45]
  TGI: > 100 µM
[46]
  TGI: > 100 µM
[47]
  TGI: > 100 µM
[48]
  TGI: > 100 µM
[49]
  TGI: > 100 µM
[50]
  TGI: > 100 µM
[51]
  TGI: > 100 µM
[66]
  TGI: > 100 µM
[52]
  TGI: > 100 µM
[53]
  TGI: > 100 µM
[55]
  TGI: > 100 µM
[56]
  TGI: > 100 µM
[57]
  TGI: > 100 µM
[58]
  TGI: > 100 µM
[59]
  TGI: > 100 µM

— PubChem BioAssay (NCI)
